From US20210353648A1, “GRAPIPRANT UNIT DOSAGE FORMS” (Arrys Therapeutics, Inc., priority 2018, published 2021)
Read-outs that look alike come from different tables or passages of the source.

What was measured:
Type in all cases: in vivo, human
[1] = tested on: serum bone-specific alkaline phosphatase; assay: Multiple ascending dose study: bone marker, percent change from baseline; conditions: for change from baseline in bone-specific alkaline phosphatase (least squares mean): 300 mg BID
Source text: (§1) Each bone marker (serum bone-specific alkaline phosphatase and osteocalcin, urinary N-terminal telopeptide of type I collagen) is expressed as percentage change from baseline and analyzed. To assess influence of potential outliers on the bone marker data analyses, the following analysis can be conducted first. Potential outliers are identified as outside an interval consistent with a normal distribution defined as (median±3.5 standard deviations [SD]) for each dosing regimen and day combination. The SD is a pooled estimate across all dosing regimen and day combinations, each estimated by the scaled inter-quartile range 0.75 (Q75-Q25). Explicitly, for each dosing regimen and day combination, its SD denoted by SDi is estimated by its scaled inter-quartile range 0.75 (Q75-Q25). The overall SD is estimated as
(§2) Then, the (percent change from baseline) values are analyzed with a mixed effect model, with treatment (dosing regimen), day, and treatment-by-day interaction effects considered fixed and subject considered random. Baseline value is not included as a covariate. The model is fit separately to each group of cohorts (Cohorts 1-3 and 5). For Cohorts 1-3, days of interest are day 7 and day 14. For Cohort 5, days of interest are day 10 and day 17. For each group of cohorts, compound symmetry is assumed, and Restricted Maximum Likelihood Estimates are used. The least squares means (LSMeans) and 95% confidence intervals (CI) are obtained for each treatment and day combination. Within each treatment, LSMean percent changes from baseline at each post-dosing day (i.e., day 7 and day 14 for Cohorts 1-3, and day 10 and day 17 for Cohort 5) are obtained, along with their 95% CIs. In addition, for each post-dosing day, differences of the LSMean percent changes from baseline between active dosed regimen and placebo are obtained. The p-values comparing these differences from placebo are obtained using t-tests. No adjustments are made for multiple comparisons. […] If outliers are identified, additional mixed model analyses using the same mixed effect modeling as detailed above are to be conducted excluding the outliers. […] Individual percent-change-from-baseline profile versus time plots are plotted by treatment regimen.

[2] = tested on: urinary N-terminal telopeptide of type I collagen; assay: as above
Source text: as §1, §2

osteocalcin = assay: as above
Source text: as §1, §2

[3] = Phase 1 crossover food effect study of 375 mg grapiprant tablets: pharmacokinetics; conditions: for AUC(0-inf) / Cmax / AUC(0-t) / half-life / Tmax: human, serum, po, 375 mg, single oral dose, healthy subjects (N = 12); for AUC(0-inf) / Cmax / AUC(0-t) / half-life: arithmetic mean; for AUC(0-t): read-out: AUC(0-tlast); for half-life: read-out: t½ (converted); for Tmax: median
Description: This study was a randomized, open-label, single dose, 2-period crossover design. Each subject participated in 2 study periods. In each study period, subjects received a dose of 375 mg administered as 3×125 mg tablets of grapiprant under fasted or fed conditions in a crossover manner according to a randomized dosing sequence. The fed condition consisted of a standardized high-fat meal. Following an initial screening period of no longer than 28 days, 12 eligible subjects were to be randomized to the 2 treatment sequences and 2 treatment period sessions as shown in Table 6-1.
In each study period, subjects received 375 mg grapiprant (as 3×125 mg tablets) under either fed or fasted conditions. Each subject received 2 single doses: Day 1 and Day 8.
Blood samples were collected at the following times: 0 (just prior to dosing), 0.5, 1, 1.5, 2, 2.5, 3, 4, 6, 8, 12, 16, 24 and 48 hours following each dosing. The primary pharmacokinetic endpoints of the study were AUC(0-tlast) (area under the serum concentration-time curve from time 0 to the time of the last quantifiable concentration), AUC(0-inf) (AUC from time 0 to infinite time), and Cmax (maximum observed serum concentration) of serum grapiprant. The secondary pharmacokinetic endpoints of the study were Tmax (the time to Cmax) and t½ (terminal elimination half-life), as the data permitted.
Log-transformed AUC(0-inf), AUC(0-tlast) and Cmax were each analyzed using a mixed effects model containing sequence, treatment (fed and fasted), and period as the fixed effects and subject (within sequence) as the random effect. The SAS procedure PROC MIXED was used for the analysis. Compound symmetry was assumed, and Restricted Maximum Likelihood Estimates (REML) were utilized.
For AUC(0-inf), AUC(0-tlast) and Cmax, on the natural log scale, estimates of the adjusted mean difference between grapiprant tablet under fed condition (test) and grapiprant under fasted condition (reference) and their corresponding 90% confidence intervals were calculated.
The anti-logs (exponent) of the difference and confidence interval were taken to estimate the mean ratio (relative bioavailability) and its corresponding 90% confidence interval. Vital signs, adverse events, ECG parameters, and safety laboratory values were summarized with descriptive statistics.

[4] = 50 mg, 14-day oral administration, healthy adults, post-dosing day 7
[5] = 50 mg, 14-day oral administration, healthy adults, post-dosing day 14
[6] = 150 mg, 14-day oral administration, healthy adults, post-dosing day 7
[7] = 150 mg, 14-day oral administration, healthy adults, post-dosing day 14
[8] = 250 mg, 17-day oral administration, elderly with minor renal impairment, post-dosing day 10
[9] = 250 mg, 17-day oral administration, elderly with minor renal impairment, post-dosing day 17
[10] = 300 mg, 14-day oral administration, healthy adults, post-dosing day 7
[11] = 300 mg, 14-day oral administration, healthy adults, post-dosing day 14
[12] = elderly subjects, 250 mg BID versus placebo
[13] = 375 mg tablets, adjusted geometric means, N = 12
[14] = 375 mg tablets, standard high-fat meal compared to fasted
[15] = 375 mg tablet-fed (high-fat meal)

CCc1nc2c(C)nc(C)cc2n1-c1ccc(CCNC(=O)NS(=O)(=O)c2ccc(C)cc2)cc1 [Grapiprant, N-((4-(2-ethyl-4,6-dimethyl-1H-imidazo[4,5-c]pyridin-1-yl)phenethyl)carbamoyl)-4-methylbenzenesulfonamide]
LS Mean Difference in bone-specific alkaline phosphatase [1, 4]: about −8.62%
LS Mean Difference in bone-specific alkaline phosphatase [1, 5]: about 7.16%
LS Mean Difference in bone-specific alkaline phosphatase [1, 6]: about 4.76%
LS Mean Difference in bone-specific alkaline phosphatase [1, 7]: about 1.23%
LS Mean Difference in bone-specific alkaline phosphatase [1, 8]: about −1.75%
LS Mean Difference in bone-specific alkaline phosphatase [1, 9]: about 3.88%
change from baseline in bone-specific alkaline phosphatase (least squares mean) ([1]; Day 7, healthy subjects, placebo 4.70%, p=0.020): 20.80%
change from baseline in bone-specific alkaline phosphatase (least squares mean) ([1]; Day 14, healthy subjects, placebo −5.36%, p=0.006): 14.36%
LS Mean Difference (of percent change from baseline) in bone-specific alkaline phosphatase [1, 10]: about 16.10%
LS Mean Difference in bone-specific alkaline phosphatase [1, 11]: about 19.72%
bone marker difference between treatment groups [1, 12]: no statistically significant differences
LS Mean change in N-telopeptide of type I collagen [2, 4]: about 14.77%
LS Mean change in N-telopeptide of type I collagen [2, 5]: about −23.50%
change from baseline in urine N-telopeptide (least squares mean) ([2]; 150 mg BID, Day 14, healthy subjects, placebo 34.74%, p=0.050): −3.97%
LS Mean change in N-telopeptide of type I collagen [2, 6]: about −9.78%
LS Mean change in N-telopeptide of type I collagen [2, 7]: about −38.72%
LS Mean change in N-telopeptide of type I collagen [2, 8]: about −9.62%
LS Mean change in N-telopeptide of type I collagen [2, 9]: about −16.76%
LS Mean change in N-telopeptide of type I collagen [2, 10]: about 12.69%
LS Mean change in N-telopeptide of type I collagen [2, 11]: about −21.33%
bone marker difference between treatment groups [2, 12]: no statistically significant differences
change from baseline in osteocalcin (least squares mean) (osteocalcin; 50 mg BID, Day 7, healthy subjects, placebo 39.30%, p=0.023): 1.40%
LS Mean change in blood osteocalcin (osteocalcin; [4]): about −37.90%
LS Mean change in blood osteocalcin (osteocalcin; [5]): about −13.58%
LS Mean change in blood osteocalcin (osteocalcin; [6]): about −31.02%
LS Mean change in blood osteocalcin (osteocalcin; [7]): about −10.29%
LS Mean change in blood osteocalcin (osteocalcin; [8]): about −5.91%
LS Mean change in blood osteocalcin (osteocalcin; [9]): about −3.96%
change from baseline in osteocalcin (least squares mean) (osteocalcin; 300 mg BID, Day 14, healthy subjects, placebo 47.84%, p=0.045): 14.37%
LS Mean change in blood osteocalcin (osteocalcin; [10]): about −10.30%
LS Mean change in blood osteocalcin (osteocalcin; [11]): about −33.47%
bone marker difference between treatment groups (osteocalcin; [12]): no statistically significant differences
Geometric Mean Ratio (fed/fasted) of AUC(0-inf) [3, 13]: 87.48%
Geometric Mean Ratio (fed/fasted) of AUC(0-tlast) [3, 13]: 87.42%
Geometric Mean Ratio (fed/fasted) of Cmax [3, 13]: 64.16%
decrease in AUC [3, 14]: 13%
decrease in Cmax [3, 14]: 36%
AUC(0-inf) ([3]; 375 mg tablet-fasted): 29100 ng·h/mL
Cmax ([3]; 375 mg tablet-fasted): 8990 ng/mL
AUC(0-t) ([3]; 375 mg tablet-fasted): 28900 ng·h/mL
half-life ([3]; 375 mg tablet-fasted): 9.48 h
Tmax ([3]; 375 mg tablet-fasted): 1 h
AUC(0-inf) [3, 15]: 24800 ng·h/mL
Cmax [3, 15]: 5840 ng/mL
AUC(0-t) [3, 15]: 24600 ng·h/mL
half-life [3, 15]: 8.52 h
Tmax [3, 15]: 4 h
